Values quoted from earlier work as cited in US20030235623A1, “Aqueous disinfecting compositions with rapid bactericidal effect” (priority 2002, published 2003).

System: some bacteria

OO [Hydrogen peroxide]
concentration known to inhibit the growth of some bacteria: 25 mg/L
